Data reported in US20060093634A1, “Personal care compositions and concentrates for making the same” (Lonza Inc., priority 2004, published 2006).

Test: Skin moisture after application of moisturizing compositions (Corneometer)
Format: in vivo
Conditions: applied to skin
Experimental: Glycerol monostearate (GMS) cream moisturizing compositions containing 2% glycerin (Sample 1), 1% sodium erythorbate (Sample 2), 1% δ-gluconolactone (Sample 3), or 2% of a biodegradation prevention mixture containing 75% (by weight) sodium benzoate and 25% (by weight) sodium erythorbate were tested as follows.
The GMS cream was prepared as follows. Polyoxyethylene glyceryl monostearate, glyceryl monostearate, cetearyl alcohol, and myristyl propionate were mixed and heated to 60° C. in a first container. In four separate containers, glycerin, sodium erythorbate, δ-gluconolactone, or the aforementioned biodegradation prevention mixture were mixed with sterile deionized water and heated to 60° C. The solution in the first container was poured into each container containing glycerin, sodium erythorbate, δ-gluconolactone, or the biodegradation prevention mixture to produce the desired concentrations, e.g., 2% glycerin (w/w) (Sample 1), 1% sodium erythorbate (w/w) (Sample 2), 1% δ-gluconolactone (w/w) (Sample 3), or 2% biodegradation prevention mixture (w/w) (Sample 4). The containers were maintained at 60° C. for 10 minutes, and then allowed to cool. The pH of the solution was adjusted to pH 7 with sodium hydroxide to yield the GMS cream.
The moisturizing compositions were applied once to skin and skin moisture measurements were taken over a 7 day period following administration. […]

Structure (SMILES) | Skin moisturization compared with known moisturizers such as glycerin
O=C1O[C@H]([C@H](O)CO)C([O-])=C1O.[Na+] [sodium erythorbate] | moisturize skin more effectively than many known moisturizers
O=C1O[C@H](CO)[C@@H](O)[C@H](O)[C@H]1O [δ-gluconolactone] | moisturize skin more effectively than many known moisturizers
